Test results from PubChem BioAssay (NCI).
Values joined by “and” are separate entries in the source; they are usually repeats but may differ in a detail not shown here. Identical values can stand only once.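 Tested at 5 concentrations; 48 h exposure; 96-well plates; endpoints linearly interpolated, else capped at highest concentration. GI50: concentration for 50% inhibition of growth. TGI: concentration producing complete growth inhibition.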

What was measured:
Experiment in all cases: DTP human tumour cell line panel, 48 h
CAKI-1 renal = system: CAKI-1 renal
DU-145 prostate = system: DU-145 prostate
EKVX NSCLC = system: EKVX NSCLC
IGROV1 ovarian = system: IGROV1 ovarian
OVCAR-3 ovarian = system: OVCAR-3 ovarian
PC-3 prostate = system: PC-3 prostate
RXF 393 renal = system: RXF 393 renal
SK-MEL-2 melanoma = system: SK-MEL-2 melanoma
SN12C renal = system: SN12C renal
SNB-19 CNS = system: SNB-19 CNS

| SMILES | TGI (CAKI-1 renal) | TGI (DU-145 prostate) | TGI (EKVX NSCLC) | TGI (IGROV1 ovarian) | TGI (OVCAR-3 ovarian) | TGI (PC-3 prostate) | TGI (RXF 393 renal) | TGI (SK-MEL-2 melanoma) | TGI (SN12C renal) | TGI (SNB-19 CNS) | GI50 (CAKI-1 renal) | GI50 (DU-145 prostate) | GI50 (EKVX NSCLC) | GI50 (IGROV1 ovarian) | GI50 (OVCAR-3 ovarian) | GI50 (PC-3 prostate) | GI50 (RXF 393 renal) | GI50 (SK-MEL-2 melanoma) | GI50 (SN12C renal) | GI50 (SNB-19 CNS) |
| --- | --- | --- | --- | --- | --- | --- | --- | --- | --- | --- | --- | --- | --- | --- | --- | --- | --- | --- | --- | --- |
| CC[C@]12CCCN3CCc4c(n(c5ccccc45)C(=O)C1)[C@@H]32 | > 100 µM | > 92.7 µM | > 100 µM | > 100 µM | 5.81 µM | > 100 µM | 63.7 µM | > 100 µM | > 100 µM | > 100 µM | – | – | – | – | – | – | – | – | – | – |
| COC(=O)[C@@]12C(=O)C=CC(=O)[C@@H]1C1C(=CC2COC(C)=O)O[C@@H]2OC3(CCCCC3)O[C@H]12 (stereo partly drawn) | 25.4 µM | 32.2 µM | 32.8 µM | 31.6 µM | 17.1 µM | 25.3 µM | 23.4 µM | 37.3 µM | 29.1 µM | 29.8 µM | – | – | – | – | – | – | – | – | – | – |
| CC(=O)NCCc1c2c(c3nccc4c3c1Nc1ccccc1-4)OCS2 | 8.59 µM | 2.48 µM | 16.1 µM | 5.61 µM | 5.67 µM | 9.33 µM | 13.5 µM | 13.9 µM | 4.79 µM | 18.8 µM | 0.249 µM | 1.06 µM | 2.05 µM | 0.976 µM | 1.48 µM | 2.95 µM | 3.02 µM | 3 µM | 0.741 µM | 3.17 µM |
| CCOC(=O)c1ccc2[nH]c(-c3ccc(S(=O)(=O)F)cc3)cc(=O)c2c1 | > 100 µM | > 100 µM | > 100 µM | > 100 µM | 50.3 µM | > 100 µM | > 100 µM | > 100 µM | > 100 µM | > 100 µM | – | – | – | – | – | – | – | – | – | – |
| CCCCC[C@H](O)/C=C/[C@@H]1[C@@H](C/C=C\CCCC(=O)O)[C@@H](O)C[C@H]1O | > 100 µM | > 100 µM | > 100 µM | > 100 µM | > 100 µM | > 100 µM | > 100 µM | > 100 µM | > 100 µM | > 100 µM | > 100 µM | > 100 µM | > 100 µM | > 100 µM | > 100 µM | > 100 µM | > 100 µM | > 100 µM | > 100 µM | > 100 µM |
| CC12CCC3C(CCC4Cc5[nH]c6ccccc6c5CC43C)C1CCC2O (stereo not drawn) | > 100 µM | 5.5 µM | > 100 µM | > 100 µM | 0.719 µM | > 100 µM | 3.31 µM | > 100 µM | > 100 µM | > 100 µM | 0.791 µM | 1.69 µM | 3.69 µM | 0.768 µM | 0.26 µM | 3.13 µM | 0.738 µM | 4.28 µM | 4.09 µM | 2.89 µM |
| COc1cc(C(=O)/C=C/c2c(C)n([O-])c3ccc(C)cc3[n+]2=O)cc(OC)c1OC | – | 21.1 µM | > 100 µM | 13 µM | 7.1 µM | > 59.3 µM | 3.91 µM | 31.2 µM | 35.7 µM | 46 µM | 2.2 µM | 7.88 µM | 19.4 µM | 3.8 µM | 3.11 µM | 12.9 µM | 1.89 µM | 15 µM | – | 20.8 µM |
| NC(=O)NNCc1ccccc1 | > 100 µM | > 100 µM | > 100 µM | > 100 µM | > 100 µM | > 100 µM | > 100 µM | > 100 µM | > 100 µM | > 100 µM | – | – | – | – | – | – | – | – | – | – |
| Cc1cc2nc(C(C)C(=O)c3ccc(Cl)cc3)c(=O)[nH]c2cc1C (stereo not drawn) | > 100 µM | > 100 µM | 64.3 µM | > 100 µM | > 100 µM | > 100 µM | > 100 µM | > 100 µM | > 100 µM | > 100 µM | – | – | – | – | – | – | – | – | – | – |
| Cc1ccc([N+](=O)[O-])cc1NC(=O)Nc1cccc(F)c1 | > 100 µM | 28.4 µM | > 100 µM | 35.9 µM | 11.7 µM | > 100 µM | 61.2 µM | 89.2 µM | > 100 µM | 97.1 µM | 3.35 µM | 4.54 µM | 3.68 µM | 5.78 µM | 3.25 µM | 3.44 µM | 18.4 µM | 8.82 µM | 5.18 µM | 6.27 µM |
| Cc1nc(-c2cccc(Nc3nc(-c4ccc(Cl)cc4)cs3)c2)cs1 | 24.6 µM | 18.4 µM | 17.2 µM | 32.7 µM | 23.1 µM | 21.2 µM | 19 µM | 18.9 µM | 17.1 µM | 28.9 µM | 11.8 µM | 9.73 µM | 8.6 µM | 15.9 µM | 10.5 µM | 8.96 µM | 9.63 µM | 8.82 µM | 9.3 µM | 12.8 µM |
| COc1ccc(-c2cc(-c3cc(Cl)ccc3Cl)nc3n[nH]c(N)c23)cc1 | 24.4 µM | > 100 µM | > 100 µM | > 100 µM | 61.9 µM | > 100 µM | > 100 µM | > 100 µM | > 100 µM | > 100 µM | 4.05 µM | 36 µM | 34.6 µM | 28.3 µM | 8.82 µM | 35.9 µM | 29.5 µM | 36.1 µM | 32.7 µM | 31.8 µM |
| COc1ccc(C2CC(c3cc(OC)c(OC)c(OC)c3)=NO2)cc1OCCCCOc1cc2c(cc1OC)C(=O)N1CCC[C@H]1C=N2 (stereo partly drawn) | > 100 µM | 7.43 µM | 25 µM | 3.06 µM | 3.96 µM | 3.04 µM | 2.72 µM | 4.8 µM | 3.31 µM | 4.97 µM | 3.09 µM | 2.48 µM | 3.68 µM | 1.57 µM | 1.94 µM | 0.585 µM | 1.39 µM | 2.03 µM | 1.58 µM | 1.96 µM |
| CCN1CCN(Cc2ccc(-c3cc4c(N[C@H](C)c5ccccc5)ncnc4[nH]3)cc2)CC1 | 3.17 µM and > 10 µM | 19.9 µM and > 10 µM | > 10 µM | 1.51 µM and 7.17 µM | 20.9 µM and > 10 µM | 18.7 µM and > 10 µM | 4.27 µM and 3.82 µM | 17.4 µM and > 10 µM | 15.5 µM and > 10 µM | 29.7 µM and > 10 µM | 0.252 µM and 1.27 µM | 1.78 µM and 2.38 µM | 0.308 µM | 0.112 µM and 0.176 µM | 3.78 µM and 2.05 µM | 2.24 µM and 5.07 µM | 1.17 µM and 0.665 µM | 4.86 µM and > 10 µM | 0.278 µM and 2.12 µM | 6.11 µM and 4.04 µM |
| O=C(O)C/C(=C\c1ccco1)C(=O)O | > 100 µM | > 100 µM | > 100 µM | > 100 µM | > 100 µM | > 100 µM | > 100 µM | > 100 µM | > 100 µM | > 100 µM | – | – | – | – | – | – | – | – | – | – |
| FC(F)(F)c1nc(N2CCCC2)ncc1-c1nnnn1-c1ccc(Cl)cc1 | 88.2 µM | > 100 µM | > 100 µM | > 100 µM | 83.4 µM | 82.2 µM | 51.7 µM | > 100 µM | > 100 µM | > 100 µM | 17.5 µM | 48.4 µM | 29 µM | 25.5 µM | 18.9 µM | 16 µM | 14.9 µM | 18 µM | 26.3 µM | 30.9 µM |
| F | > 6870 µM | > 6870 µM | 5220 µM | > 6870 µM | > 6870 µM | > 6870 µM | 5200 µM | 2890 µM | > 6870 µM | > 6870 µM | 3220 µM | 2800 µM | 2100 µM | 2800 µM | > 6870 µM | 3920 µM | 2360 µM | 1440 µM | 3270 µM | 6220 µM |
| N#Cc1c(-c2ccccc2)nc(SCC2CO2)nc1N1CCOCC1 (stereo not drawn) | 17 µM | > 100 µM | > 78.5 µM | 25.9 µM | > 69.2 µM | > 100 µM | > 100 µM | 75.7 µM | > 100 µM | > 100 µM | 1.07 µM | 14.2 µM | 4.73 µM | 2.6 µM | 5.27 µM | 6.19 µM | 13 µM | 14.7 µM | 15.3 µM | 64.4 µM |
| COc1ccc2[nH]c(=O)c3c4ccccc4cn3c2c1 | 0.839 µM | 3.63 µM | 12.4 µM | 5.23 µM | 0.608 µM | 4.08 µM | 1.09 µM | 7.66 µM | 7.17 µM | 9.33 µM | 0.169 µM | 0.604 µM | 0.878 µM | 0.575 µM | 0.253 µM | 0.429 µM | 0.312 µM | 1.35 µM | 0.6 µM | 0.95 µM |
| Cc1c2cc[n+](C)cc2c(C)c2c1sc1ccccc12 | 60.6 µM | 5.07 µM | > 50.2 µM | 28.4 µM | 5.43 µM | 13.1 µM | 12 µM | 7.71 µM | 0.747 µM | 2 µM | – | – | – | – | – | – | – | – | – | – |
| COc1c(C=O)c2c(c(OC)c1OC)-c1ccc(OC)c(=O)cc1[C@@H](NC(C)=O)CC2 | > 30.9 µM | > 100 µM | > 100 µM | 76.6 µM | 1.09 µM | > 100 µM | > 56.3 µM | 2.57 µM | > 100 µM | > 92.8 µM | – | – | – | – | – | – | – | – | – | – |
